According to US11103619B2, “Anticalcification treatment for impantable biological tissues using calcitonin” (priority 2018, dated 2021):

Tested on: Porcine aortic leaflets implanted subdermally in male Wistar rats
Assay: Post-implantation calcium content of treated porcine aortic leaflets implanted subdermally in rats for 21 days, measured by atomic absorption
Assay type: in vivo
Settings: for Cumulative results of post-implantation Ca concentration: mean ± STDEV, p < 0.05 vs Group I (Glut only, 126.95 ± 12.97); for Post implantation Ca Content: explanted after 21 days, mean
Protocol: In one embodiment, the method comprises placing the biological tissue for fixation and preservation in a buffered glutaraldehyde (Glut) solution 0.5% at pH 7.4, adding salmon synthetic calcitonin (CT), such as Miacalcic® of Novartis Hellas A.B.E. In this experiment, two different concentrations of calcitonin were tested. One with 1 unit/100 ml (1%) and the other with 10 units/100 ml (10%). The first fixation process lasted one hour, at a pressure between 2-3 mmHg and subsequently the biological tissues were embedded in an accordingly new solution for one week.
Porcine aortic leaflets were selected as fresh tissue from a local slaughter house and were cut radially in three parts. Following harvesting, the biological tissue is rinsed and maintained in cold Hepa saline solution (temperature between 4°-12° C.) between two to six hours.
Three groups of tissue were created. Group I (Glut only), Group II (Glut with 1% CT) and Group III (Glut with 10% CT). All tissues were then implanted subdermally in three sets of 8 (Group I), 9 (Group II) and 9 (Group III) male Wistar rats of 12 days old (Center for Experimental Surgery, Biomedical Research Foundation of the Academy of Athens). […] All tissues were rinsed three times in normal saline solution for 10 minutes each time before implantation. Each rat received four fragments of tissue at the dorsum, through four separate incisions (two at each side) each of 1 cm long, with a technique we have previously described elsewhere (Agathos E A et al: “In vivo calcification of glutaraldehyde fixed cardiac valve and pericardium of Phoca Groenlandica”: ASAIO 57(4):328-332, July/August 2011).
21 days later the rats were euthanized by inhalation of CO2. All procedures were approved by the Animal Care Committee of the Academy of Athens and performed according to the Guide for the Care and Use of Laboratory Animals prepared by the Institutes of Laboratory Animal Resources, National Research Council and published by the National Academy Press, revised 1996 (NIH publication No. 85-23). The tissues were retrieved and after rinsing with distilled water 3 times, were lyophilized at −40° C. at high vacuum pressure of approximately […] for 16 hours. The calcium content was then measured with flat atomic absorption technique.
For statistical analysis, the commercially available software package ANOVA Origin 8.0 for Windows (OriginLab Corporation, Northampton, Mass., USA) was used. P values of 0.05 or less were defined as a statistically significant difference.

salmon synthetic calcitonin [CT]
Ca concentration accumulation in the explanted tissues (fold, post vs pre implantation) (Group II (1% CT)): 5.16 × | Cumulative results of post-implantation Ca concentration (Group II (1% CT), ns vs Group III): 24.69 ± 2.71 | Post implantation Ca Content (Group II: Glut with 1% CT): 24.69 mg Ca/gr tissue | Ca concentration accumulation in the explanted tissues (fold, post vs pre implantation) (Group III (10% CT)): 9.43 × | Cumulative results of post-implantation Ca concentration (Group III (10% CT), ns vs Group II): 27.16 ± 2.95 | Post implantation Ca Content (Group III: Glut with 10% CT): 27.16 mg Ca/gr tissue
